Experimental data taken from ChEMBL document CHEMBL1156840, “Design, synthesis and biological evaluation of new 2,3-diarylquinoline derivatives as selective cyclooxygenase-2 inhibitors” (Bioorg Med Chem, 2010).

What follows are compounds tested against T1, Prostaglandin G/H synthase 1 (Ovis aries, UniProt P05979).
T1 sequence (P05979 whole entry): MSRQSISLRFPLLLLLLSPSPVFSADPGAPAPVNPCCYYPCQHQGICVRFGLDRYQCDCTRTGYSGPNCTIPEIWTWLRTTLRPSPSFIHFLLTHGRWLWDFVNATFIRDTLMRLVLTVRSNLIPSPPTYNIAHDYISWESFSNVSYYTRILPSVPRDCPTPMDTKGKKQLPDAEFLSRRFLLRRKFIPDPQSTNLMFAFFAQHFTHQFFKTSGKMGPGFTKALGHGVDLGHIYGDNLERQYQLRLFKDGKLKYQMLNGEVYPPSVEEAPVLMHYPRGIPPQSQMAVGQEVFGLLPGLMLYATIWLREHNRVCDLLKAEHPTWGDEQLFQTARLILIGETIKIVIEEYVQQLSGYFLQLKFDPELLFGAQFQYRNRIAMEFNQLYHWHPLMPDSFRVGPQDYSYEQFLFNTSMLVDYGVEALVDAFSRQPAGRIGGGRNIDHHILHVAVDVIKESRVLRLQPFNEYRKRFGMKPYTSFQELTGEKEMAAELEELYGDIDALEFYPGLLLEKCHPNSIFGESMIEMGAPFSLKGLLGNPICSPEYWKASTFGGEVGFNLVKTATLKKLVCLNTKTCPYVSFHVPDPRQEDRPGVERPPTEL
Description: Inhibition of ovine COX1 by enzyme chemiluminescent enzyme assay

Compound	IC50 [µM]
CS(=O)(=O)c1ccc(-c2nc3ccccc3c(N)c2-c2ccccc2)cc1	14.4
CS(=O)(=O)c1ccc(-c2nc3ccccc3c(C(=O)O)c2-c2ccccc2)cc1	48.1
CS(=O)(=O)c1ccc(-c2nc3ccccc3c(-c3ccccc3)c2-c2ccccc2)cc1	10.2
CS(=O)(=O)c1ccc(-c2nc3ccccc3cc2-c2ccccc2)cc1	33.5
Cc1c(-c2ccccc2)c(-c2ccc(S(C)(=O)=O)cc2)nc2ccccc12	13.3
